Reference: US12201610B2, “Compositions comprising aticaprant” (Janssen Pharmaceuticals, Inc., priority 2022, dated 2025)

How the values were obtained:
Type in all cases: in vivo, human
[1] = system: subjects with MDD; test: SATE score (Example 6); details: Treatment Week 6, aticaprant 10 mg
From the text: SATE is a one to three questionnaire administered when the subject is unable to complete other evaluations, i.e., away from the clinical setting such as at home. SATE is useful to evaluate improvement or deterioration of depressive symptoms of the subjects over a short period of time. […] See, Table 6.
iv. To investigate the effect of aticaprant on symptoms of depression using the Clinical Global Impression-Severity (CGI-S), the patient reported Symptoms of Major Depressive Disorder Scale (SMDDS) and the self-assessment of treatment experience (SATE).
• (i) Depression: Montgomery-Åsberg Depression Rating Scale (MADRS), Clinical Global Impression-Severity (CGI-S), Symptoms of Major Depressive Disorder Scale (SMDDS), and Self-assessment of treatment experience (SATE) • (ii) Anhedonia: Snaith-Hamilton Pleasure Scale (SHAPS) • (iii) Anxiety: Structured Interview Guide for the Hamilton Anxiety scale (SIGH-A) and HAM-A6 • (iv) Effects on Cognition: The Cognitive and Physical Functioning Questionnaire (CPFQ) • (v) Safety assessments

[2] = system: subjects with MDD; test: Treatment-emergent adverse events, full safety analysis set (Example 6)
[3] = Body weight by treatment group (Example 6)
Method: Treatment with aticaprant as described herein has several advantages over the treatments in the art. […] As used herein, the term “weight gain” refers to an increase in the weight of patient, relative to the weight of the patient before taking aticaprant or the weight of the patient that is assessed at the time of the initial administration of aticaprant. In certain embodiments, the patient may actually see a decrease in overall weight, relative to the weight of the patient before taking aticaprant.
At the lead-in baseline timepoint, the mean weight for subjects in the placebo group was 76.17 kg compared to 78.66 in the aticaprant group. After 6 weeks in the double-blind treatment phase, the mean weight in the placebo group was 75.75 kg compared to 78.57 kg in the aticaprant group. […] This is unexpected because other adjunctive treatments for MDD result in a mean weight increase. See, Thase M, et al. J Clin Psych. 2015: 76(9), 1224-1231; Thase, J Clin Psych. 2015, 76(9): 1232-1240; El Khalili, Int J Neuropsychopharmacol. 2010, 13, 917-932; Marcus, J. Clin. Psychopharmacol. […] Nashville, Tenn, ACNP, 2008; Earley, American College of Neuropsychopharmacology, 2007, Annual Meeting Abstracts (Boca Raton, Fla, Dec. 9-13, 2007). Nashville, TN, ACNP, 2007). See, Table 45.

[4] = system: subjects with MDD; test: ASEX sexual functioning score (Example 6)
From the text: As used herein, the term “decrease in sexual functioning” refers to reducing or lessening of one or more components of the human sex drive, i.e., sexual functioning. In some embodiments, the sexual functioning comprises one or more of sexual drive, sexual arousal, vaginal lubrication, erection, orgasm achievement, or orgasm satisfaction. In other embodiments, the sexual functioning comprises sexual drive. In further embodiments, the sexual functioning comprises vaginal lubrication satisfaction. In further embodiments, the sexual functioning comprises orgasm achievement. In yet other embodiments, the sexual functioning comprises orgasm satisfaction. Desirably, the patient's sexual functioning is assessed at the time of initial administration of aticaprant. Thus, the patient's sexual functioning while taking aticaprant can be compared to the patient's sexual functioning before administration of aticaprant. Sexual functioning may be assessed by using standard scales and techniques such as the Arizona Sexual Experience Scale (ASEX). The ASEX is used to investigate whether aticaprant has a further positive or negative effect on sexual function. The ASEX is 5 item rating scale administered to patients that quantifies sexual drive, sexual arousal, vaginal lubrication or penile erection, ability to reach orgasm and satisfaction. Scores range from 5 to 30, and two different versions of the scale are available (males and females).
Patients had their sexual functioning measured using a standard, well accepted rating scale: ASEX. See, Table 48.

[5] = TEAE in >= 5% of subjects, Treatment Period, Full Safety Analysis Set, aticaprant 10 mg (N = 85), Table 40
[6] = TEAE of Special Interest, Treatment Period, Full Safety Analysis Set, aticaprant 10 mg (N = 85), Table 41
[7] = Treatment Period, Full Safety Analysis Set, aticaprant 10 mg (N = 85)

Cc1cc(C)cc(C2CCCN2Cc2ccc(Oc3ccc(C(N)=O)cc3F)cc2)c1 (stereo not drawn) [aticaprant, 3-fluoro-4-4-2-(3,5-dimethylphenyl)pyrrolidin-1-yl-methylphenoxybenzamide]
SATE: Depression Worsened (Much worse) ([1]; n = 0): 0 subjects
SATE: Depression Worsened (Slightly worse) ([1]; n = 0): 0 subjects
SATE: Depression Worsened (Very much worse) ([1]; n = 0): 0 subjects
SATE: Depression Much improved ([1]; n = 21): 6 subjects
SATE: Depression Slightly improved ([1]; n = 21): 15 subjects
SATE: Depression Very Much Improved ([1]; n = 21): 0 subjects
SATE: Overall Depression (Got worse) ([1]; n = 30): 0 subjects
SATE: Overall Depression (Improved) ([1]; n = 30): 21 subjects
SATE: Overall Depression (Not changed) ([1]; n = 30): 9 subjects
Diarrhea, % [2, 5]: 8%
Gastrointestinal Disorders, % [2, 5]: 14%
Headache, % [2, 5]: 12%
Infections And Infestations, % [2, 5]: 15%
Nasopharyngitis, % [2, 5]: 6%
Nervous System Disorders, % [2, 5]: 15%
Pruritus, % [2, 5]: 6%
Skin And Subcutaneous Tissue Disorders, % [2, 5]: 7%
Total no. Subjects with Adverse Events, % [2, 5]: 47%
Abdominal Pain, % [2, 6]: 1.2%
Diarrhea, % [2, 6]: 8.2%
Dyspepsia, % [2, 6]: 1.2%
Gastrointestinal Disorders, % [2, 6]: 10.6%
Pruritus, % [2, 6]: 5.9%
Skin And Subcutaneous Tissue Disorders, % [2, 6]: 5.9%
Total no. Subjects with Adverse Events of Special Interest, % [2, 6]: 15.3%
Subjects with TEAE leading to discontinuation of agent, % [2, 7]: (1.2) %
Total subjects affected by non-serious adverse events, % [2, 7]: (27.1%)
Subjects with 1 or more TEAE, % ([2]; Treatment Period, Full Safety Analysis Set, aticaprant 10 mg (N = 85), Table 39): (47.1) %
Subjects with drug-related TEAE, % ([2]; Treatment Period, Full Safety Analysis Set, aticaprant 10 mg (N = 85), possible, probable, very likely): (23.5) %
subjects who discontinued during the treatment period due to TEAEs ([2]; due to diarrhea, nausea, vomiting and headache): 1 subject
subjects with at least one TEAE during the treatment period ([2]; full safety analysis set, 40/85 subjects): 47.1%
patients with acute cholecystitis ([2]; treatment period): 0 patients
subjects with pruritus (TEAE of special interest) ([2]; treatment period, 5/85 subjects): 5.9%
subjects with diarrhea (TEAE) ([2]; treatment period, 7/85 subjects): 8.2%
subjects with headache (TEAE) ([2]; treatment period, 10/85 subjects): 11.8%
subjects with TEAEs of special interest ([2]; treatment period, 13/85 subjects): 15.3%
Mean weight, mean (SE) ([3]; Lead-in Baseline, n = 85): 78.66 (1.65) kg
Mean weight, mean (SE) ([3]; Screening, n = 85): 78.42 (1.65) kg
Mean weight, mean (SE) ([3]; Withdrawal Baseline, n = 85): 78.57 (1.71) kg
mean weight ([3]; after 6 weeks in the double-blind treatment phase): 78.57 kg
mean weight ([3]; lead-in baseline timepoint): 78.66 kg
Weight Absolute Change (Withdrawal—Lead-in) ([3]; n = 85): -0.09 kg
Weight Relative % Change ([3]; n = 85): −0.11%
ASEX score ([4]; Baseline, n = 85): 21.26
ASEX score ([4]; Endpoint, n = 85): 19.79
ASEX score Relative % Change ([4]; n = 85): −6.91%
ASEX score Absolute Change ([4]; n = 85, lower score indicates improvement): −1.47
ASEX total score mean change from treatment baseline (SD) ([4]; to week 6, lower score indicates improvement): −1.5 (4.02) points
